Data from patent US20260364101A1, “OLEUROPEIN IN THE MANAGEMENT OF CANCER” (FUNDACIÓN MIGUEL SERVET, priority 2023, published 2026).

Tests used:
CD4 T cells [1] = assay: mixed lymphocyte reaction (MLR) with TAMs as stimulator cells (FIG. 1c,d); assay type: cell-based, mouse; settings: treated TAMs as stimulators; 5 days
Experimental: (§1) MLR were carried out following standard procedures. Briefly, 100,000 MDSCs or TAMs from C57BL/6 mice were co-cultured in 96-well plates with 100,000 lymphocytes from BALB/c mice. Co-cultured cells were treated with 50 µM oleuropein and compared with control vehicle. After 5 days, T-lymphocyte activation, differentiation and proliferation were assessed by flow cytometry. T-cell activation and proliferation markers (Ki-67) and pro-inflammatory cytokine production (IL-2 and IFNγ) were evaluated by flow cytometry in CD4 and CD8 T cells as described before.
Surface and intracellular staining were carried out as described before with the following fluorochrome-conjugated antibody clones: AF488 anti-CD49d (R1-2), PE anti-CD4 (GK1.5), APCanti-CD8(53-6.7), brilliant Violet 510™ anti-I-A/I-E (M5/114.15.2,PE/Cyanine7anti-Ly-6G (1A8), and APC anti-CD80 (16-10A1) (Biolegend), FITC anti-IL-12 (C15.6) and BV421 anti-IL-2 (JES6-5H4) (BD Bioscience), APC-Vio® 770 anti-Ly-6C (REA796), PE REAfinity™ anti-F4/80 (REA126), and APC anti-CD68 (REA886) (Miltenyi), PerCP-Cyanine5.5 Anti-Human/Mouse CD11b (M1/70) (Tonbo), and AF488 anti-IFNγ (Clone XMG1.2) (BD Pharmigen). […]

CD4 T cells [2] = assay: mixed lymphocyte reaction (MLR) with MDSCs as stimulator cells (FIG. 1c,d); assay type: cell-based, mouse; settings: treated MDSCs as stimulators; 5 days
Experimental: as §1
(§2) Surface and intracellular staining were carried out as described before with the following fluorochrome-conjugated antibody clones: AF488 anti-CD49d (R1-2), PE anti-CD4 (GK1.5), APCanti-CD8(53-6.7), brilliant Violet 510™ anti-I-A/I-E (M5/114.15.2,PE/Cyanine7anti-Ly-6G (1A8), and APC anti-CD80 (16-10A1) (Biolegend), FITC anti-IL-12 (C15.6) and BV421 anti-IL-2 (JES6-5H4) (BD Bioscience), APC-Vio® 770 anti-Ly-6C (REA796), PE REAfinity™ anti-F4/80 (REA126), and APC anti-CD68 (REA886) (Miltenyi), PerCP-Cyanine5.5 Anti-Human/Mouse CD11b (M1/70) (Tonbo), and AF488 anti-IFNγ (Clone XMG1.2) (BD Pharmigen). For human cells, it was used the following fluorochrome-conjugated antibodies: PerCP-Cy5.5-anti-CD11b (integrina alfa M) (M1/70), Violet Fluor 450 anti-CD14 antibody (61D3) (Tonbo), PE anti-CD115 (CSF-1R) (9-4D2-1E4) (Biolegend), PE-Cy™7 anti-CD11c (Clone B-ly6) (BD Bioscience), and APC anti-HLA-DR (REA517) (Miltenyi).

MDSCs = assay: ex vivo differentiated MDSCs treated with compound, marker expression by flow cytometry (FIG. 1a); assay type: cell-based, mouse; settings: BML-275 500 nM alone or with oleuropein 50 μM; MDSCs
Experimental: (§3) Immunosuppressive myeloid cell subsets resembling tumor-infiltrating subsets (g-MDSCs, m-MDSCs and TAMs) were differentiated from mouse bone marrow following published procedures using conditioning medium produced by LLC tumor cells stably expressing GMCSF and MCSF cells. g- and m-MDSCs were purified using the myeloid-derived suppressor cell isolation kit (Miltenyi Biotec, Bergisch, Germany) according to manufacturer's recommendations. MDSCs and TAMs were seeded with 500 nM BML-275 or 50 μM oleuropein and incubated for seven days.
as §2
(§4) Data were collected using the FACSCanto Flow Cytometer (BD Biosciences) for ex vivo and in vitro experiments at Navarrabiomed Biomedical Research Center and Cyroflex LX flow cytometer (Beckman Counter). Data were analyzed with Flowjo.

TAMs = assay: ex vivo differentiated TAMs treated with compound, marker expression by flow cytometry (FIG. 1b); assay type: cell-based, mouse; settings: BML-275 500 nM
Experimental: as §3, §2, §4

MDSC and CD3 T cells = settings: related art; cited from earlier work

| Compound | CD4 T cell stimulation assessed by IFNγ and IL-2 production (CD4 T cells [1]) | CD4 T cell stimulation assessed by IFNγ and IL-2 production (CD4 T cells [2]) | expression of CD49d (MDSCs) | CD68 (M1 marker) (TAMs; AMPK inhibition in TAMs) | cells co-expressing MHC-II and CD80 (TAMs; oleuropein 50 μM, TAMs) | effect on MDSC and CD3 T cells (MDSC and CD3 T cells) |
| --- | --- | --- | --- | --- | --- | --- |
| c1cc(-c2cnn3cc(-c4ccc(OCCN5CCCCC5)cc4)cnc23)ccn1 [BML-275, reference compound] | weaker | weaker | reduced | increased | significant elevation |  |
| Nc1ccn([C@@H]2O[C@H](CO)[C@@H](O)C2(F)F)c(=O)n1 [gemcitabine] |  |  |  |  |  | simultaneously reduces the MDSC and the CD3 T cells |
